Measurements: patent US20040067562A1, “Process for the production of L-lysine using coryneform bacteria” (priority 2002, published 2004)

Columns and labels:
[1] = test system: feedback-resistant aspartate kinase; assay: inhibition of feedback-resistant aspartate kinase by lysine (or analogue)/threonine mixtures; format: biochemical, Corynebacterium glutamicum; settings: feedback-resistant enzyme of strain DM1725; lysine or analogue 100 mM in mixture with threonine (10 mM)
Description: (§1) The Corynebacterium glutamicum strain DM1725 was produced by multiple untargeted and targeted mutagenesis including genetic engineering methods, selection and mutant selection from C. glutamicum ATCC13032. The strain is resistant to the lysine analogue S-(2-aminoethyl)-L-cysteine and has two identical complete copies of the LysC gene that code for a feedback-resistant aspartate kinase. The two copies are located at the LysC gene site on the chromosome. […] The strain is streptomycin resistant.

[2] = target: T1, aspartate kinase in the wild type (Corynebacterium glutamicum, UniProt P26512); assay: inhibition of wild type aspartate kinase by lysine (or analogue)/threonine mixtures; format: biochemical; settings: wild type enzyme; lysine or analogue 100 mM in mixture with threonine (10 mM)
T1 construct: endogenous in cells
T1 sequence (P26512 whole entry): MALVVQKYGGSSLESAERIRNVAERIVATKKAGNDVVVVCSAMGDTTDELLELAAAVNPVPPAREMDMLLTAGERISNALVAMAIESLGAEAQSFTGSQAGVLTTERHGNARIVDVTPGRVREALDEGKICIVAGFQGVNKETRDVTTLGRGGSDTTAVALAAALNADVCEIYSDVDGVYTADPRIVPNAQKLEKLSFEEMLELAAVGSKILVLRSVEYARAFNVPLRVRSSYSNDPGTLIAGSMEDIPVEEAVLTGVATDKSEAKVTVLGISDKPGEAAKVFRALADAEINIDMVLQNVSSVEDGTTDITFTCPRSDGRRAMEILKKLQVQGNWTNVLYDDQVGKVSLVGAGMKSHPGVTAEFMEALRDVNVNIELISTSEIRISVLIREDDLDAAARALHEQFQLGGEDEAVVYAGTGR
T1 sequence (P26512 250-421): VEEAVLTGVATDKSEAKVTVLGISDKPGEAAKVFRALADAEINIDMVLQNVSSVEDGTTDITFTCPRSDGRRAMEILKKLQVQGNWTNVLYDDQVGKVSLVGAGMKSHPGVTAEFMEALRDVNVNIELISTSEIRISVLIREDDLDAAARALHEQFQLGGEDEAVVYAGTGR
Description: as §1

Compound	inhibition of aspartate kinase [1]	residual activity of aspartate kinase [2] [%]
NCCSC[C@H](N)C(=O)O [S-(2-aminoethyl)-L-cysteine]	insensitive to inhibition	10
NCCCC[C@H](N)C(=O)O [lysine]	insensitive to inhibition	10
